Source: PMC5871770, “Tlr1612 is the major repressor of cell aggregation in the light-color-dependent c-di-GMP signaling network of Thermosynechococcus vulcanus” (Scientific Reports, 2018)

Columns and labels:
SesA = molecular target: T1, SesA; test: EnzChek pyrophosphate assay, initial rate of diguanylate cyclase; assay type: biochemical; conditions: 31 °C, pH 7.5, 20 mM MgCl2, 100 µM GTP, 0.2 µM protein, blue-light pre-irradiated; allosteric product inhibition at I-site (RXXD)
T1 construct: PCC 6803 from pTCH2031V; pre-irradiated with blue light

[1] = molecular target: T2, full-length YcgR of Escherichia coli (Escherichia coli, UniProt P76010); test: FRET biosensor titration (F527/F475); assay type: binding; conditions: read-out: affinity
T2 construct: full length between mCyPet and mYPet (FRET reporters); N-terminal His tag, pET28V, E. coli expressed
T2 sequence (P76010 1-244): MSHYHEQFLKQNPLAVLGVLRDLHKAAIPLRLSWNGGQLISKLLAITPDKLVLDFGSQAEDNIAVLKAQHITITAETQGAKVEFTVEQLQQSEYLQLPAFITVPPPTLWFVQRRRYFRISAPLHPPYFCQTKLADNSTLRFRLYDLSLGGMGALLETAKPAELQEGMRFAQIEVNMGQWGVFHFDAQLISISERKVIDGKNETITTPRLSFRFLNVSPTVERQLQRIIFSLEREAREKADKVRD

[2] = molecular target: T3, Tll0007-PilZ (FRET biosensor mCyPet-Tll0007 PilZ-mYPet) (Thermostichus vulcanus, UniProt E5RST0); test: FRET biosensor titration (F527/F475); assay type: binding; conditions: 31 °C, pH 7.5, 100 mM NaCl, 10% glycerol, 50 nM protein; PilZ domain
T3 construct: gene Tvtll0007; N-terminal His tag, pET28V, E. coli expressed
T3 sequence (E5RST0 entry or part of it): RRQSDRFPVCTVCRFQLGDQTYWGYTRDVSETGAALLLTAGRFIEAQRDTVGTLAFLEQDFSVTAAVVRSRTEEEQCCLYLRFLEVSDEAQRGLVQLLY

[3] = molecular target: T4, Tll0007-PilZ (FRET biosensor mCyPet-Tll0007 PilZ-mYPet) (Thermostichus vulcanus, UniProt E5RST0, R605A); test: FRET biosensor titration (F527/F475); assay type: binding; conditions: 31 °C, pH 7.5, 100 mM NaCl, 10% glycerol, 50 nM protein; c-di-GMP 10 nM to 1 mM; PilZ RXXXR motif mutant
T4 construct: gene Tvtll0007; N-terminal His tag, pET28V, E. coli expressed
T4 sequence (E5RST0 entry or part of it R605A): as the sequence (E5RST0 entry or part of it) above, with R6A counted along it

IC50 (SesA): 1070 ± 130 nM
Kd [1]: 420 ± 80 nM
Kd [2]: 63.9 ± 5.1 µM
SMILES: Nc1nc2c(ncn2[C@@H]2O[C@@H]3CO[P@](=O)(O)O[C@H]4[C@@H](O)[C@H](n5cnc6c(=O)[nH]c(N)nc65)O[C@@H]4CO[P@](=O)(O)O[C@H]3[C@H]2O)c(=O)[nH]1 [c-di-GMP, bis-(3′-5′)-cyclic diguanylic acid]
no FRET increase (no binding detected) [3]: R605A lacked the corresponding increase in FRET efficiency upon c-di-GMP addition
